Assay results published in ChEMBL document CHEMBL4483862, “Open-source discovery of chemical leads for next-generation chemoprotective antimalarials” (2018).
pIC50: −log10 of the molar value.

System: Plasmodium berghei
Assay: Luciferase/luciferin-expressing antifolate-resistant parasites were used to infect a culture of HepG2 cells that were pre-incubated with compounds. Infected hepatocytes emit light due to the luciferase reaction. Assay results are presented as the percent inhibition of light emission compared to control. […]
Assay type: functional
Details: sporozoite; for IC90: read-out: LUCIFERASE INFECTION ASSAY - IC90
[1] = read-out: LUCIFERASE INFECTION ASSAY - IC50

Row | SMILES | IC90 | pIC50 [1] | other results
1 | Fc1ccc(Oc2ccc(CNc3ncnc4nc[nH]c34)cn2)cc1 | > 10 µM |  | pIC50 (HEPG2TOX_HILL_SLOPE 3.2, HEPG2TOX_R_SQUARED 0.895, PBLUC_HILL_SLOPE 3.02, PBLUC_R_SQUARED 0.0659, read-out: LUCIFERASE INFECTION ASSAY - IC50): 5.23
2 | O=C(NCc1sccc1Cl)Nc1cccc(Cl)c1 | > 11 µM |  | pIC50 (PBLUC_HILL_SLOPE 5.24, PBLUC_R_SQUARED 0.165, read-out: LUCIFERASE INFECTION ASSAY - IC50): 5.14
3 | Cc1cccc(N2CCN(C(=O)c3nn(-c4ccccc4)c(=O)c4ccccc34)CC2)c1C | > 10 µM | < 5.00 | 
4 | CC(=O)NCCc1ccc(C(=O)COC(=O)c2cc(C(C)C)cc(C(C)C)c2O)s1 | > 10 µM | < 5.00 | 
5 | Cc1ccc(C)c(-c2nn(CC(=O)N3c4ccccc4CC3C)c(=O)c3ccccc23)c1 (centres undefined) | > 10 µM |  | pIC50 (HEPG2TOX_HILL_SLOPE 7.77, HEPG2TOX_R_SQUARED 0.247, read-out: LUCIFERASE INFECTION ASSAY - IC50): < 5.00
6 | CCCc1ccc(-c2nc(NC(=O)C3CCCN(c4ncccn4)C3)sc2C)cc1 (centres undefined) | > 10 µM |  | pIC50 (FFLUC_HILL_SLOPE 11.3, FFLUC_R_SQUARED 0.0894, PBLUC_HILL_SLOPE 12.7, PBLUC_R_SQUARED 0.313, read-out: LUCIFERASE INFECTION ASSAY - IC50): 5.02
7 | Cc1nc2c3c(C)c(C)n(C4CCCCCC4)c3ncn2n1 | > 11.1 µM | < 4.95 | 
8 | COC(=O)c1sc(S(C)(=O)=O)c(C#N)c1-c1cccs1 | 5.13 µM |  | pIC50 (HEPG2TOX_HILL_SLOPE 11.8, HEPG2TOX_R_SQUARED 0.984, PBLUC_HILL_SLOPE 123, PBLUC_R_SQUARED 0.486, read-out: LUCIFERASE INFECTION ASSAY - IC50): 5.30
9 | O=C(Nc1nc2c(F)cc(F)cc2s1)c1cnccn1 | > 10 µM | < 5.00 | 
10 | CS(=O)(=O)Nc1ccc(-c2csc(NC(=O)c3sc4sccc4c3Cl)n2)cc1 | 9.72 µM |  | pIC50 (HEPG2TOX_HILL_SLOPE 8.43, HEPG2TOX_R_SQUARED 0.307, PBLUC_HILL_SLOPE 11.2, PBLUC_R_SQUARED 0.136, read-out: LUCIFERASE INFECTION ASSAY - IC50): 5.10
11 | CCn1c(=O)n(Cc2ncc(-c3cccc(Cl)c3)o2)c2ccccc21 | > 10 µM |  | pIC50 (PBLUC_HILL_SLOPE 1.51, PBLUC_R_SQUARED 0.651, read-out: LUCIFERASE INFECTION ASSAY - IC50): 5.28
12 | Cc1ccccc1OCCOC(=O)Nc1ccccc1 | > 12.2 µM | < 4.91 | 
13 | C/C(=N\NC(=N)N)c1ccc(Br)cc1 | > 12.9 µM |  | pIC50 (HEPG2TOX_HILL_SLOPE 2.15, HEPG2TOX_R_SQUARED 0.936, PBLUC_HILL_SLOPE 0.739, PBLUC_R_SQUARED 0.608, read-out: LUCIFERASE INFECTION ASSAY - IC50): 5.29
14 | CCC(NC(=O)NCc1ccccc1S(=O)(=O)N1CCCCC1)c1ccc(Cl)cc1 (centres undefined) | > 10 µM |  | pIC50 (PBLUC_HILL_SLOPE 1.14, PBLUC_R_SQUARED 0.117, read-out: LUCIFERASE INFECTION ASSAY - IC50): < 5.00
15 | Oc1cccc(-c2cnc3cnc(-c4cc5ccccc5s4)cn23)c1 | 8.34 µM |  | pIC50 (HEPG2TOX_HILL_SLOPE 18.8, HEPG2TOX_R_SQUARED 0.771, PBLUC_HILL_SLOPE 3.35, PBLUC_R_SQUARED 0.418, read-out: LUCIFERASE INFECTION ASSAY - IC50): 5.36
16 | O=C(c1ccc(S(=O)(=O)NCc2ccco2)cc1)N1CCc2sccc2C1c1cccs1 (centres undefined) | > 10 µM | < 5.00 | 
17 | O=C(OCC(=O)N1CCN(c2ccccc2)CC1)c1cccnc1Nc1cccc(C(F)(F)F)c1 | > 10 µM | < 5.00 | 
18 | CC1(C)N=C(N)N=C(N)N1c1ccc(Cl)cc1 [CYCLOGUANIL] | 0.515 µM |  | pIC50 (FFLUC_HILL_SLOPE 0.496, FFLUC_R_SQUARED 0.478, PBLUC_HILL_SLOPE 5.33, PBLUC_R_SQUARED 0.733, read-out: LUCIFERASE INFECTION ASSAY - IC50): 6.47
19 | O=C(Nc1ccc2c(c1)OCO2)C1CCN(C(C(=O)c2c[nH]c3ccccc23)c2ccccc2)CC1 (centres undefined) | > 10 µM |  | pIC50 (FFLUC_HILL_SLOPE 60.7, FFLUC_R_SQUARED 0.292, PBLUC_HILL_SLOPE 4.02, PBLUC_R_SQUARED 0.0454, read-out: LUCIFERASE INFECTION ASSAY - IC50): 5.11
20 | Cc1cc(CSc2ccccc2)ccc1NC(=O)Nc1ccccc1 | > 9.47 µM |  | pIC50 (PBLUC_HILL_SLOPE 1.29, PBLUC_R_SQUARED 0.521, read-out: LUCIFERASE INFECTION ASSAY - IC50): 5.65
21 | CC(NCC(O)COc1ccccc1C(C)(C)C)c1ccccc1 (centres undefined) | > 9.07 µM |  | pIC50 (PBLUC_HILL_SLOPE 2.67, PBLUC_R_SQUARED 0.166, read-out: LUCIFERASE INFECTION ASSAY - IC50): 5.36

Row | SMILES | IC90 | pIC50 [1] | other results
22 | CC(C)(C)c1ccc(OCC(=O)Nc2cnn(C(C)(C)C(=O)NCc3ccccc3)c2)cc1 | > 10 µM | < 5.00 | 
23 | Cc1cc(N2CCN(C(=O)c3cc(-c4ccccc4)nc4c3cnn4C(C)C)CC2)nc(C(C)C)n1 | > 10 µM |  | pIC50 (FFLUC_HILL_SLOPE 16.4, FFLUC_R_SQUARED 0.735, read-out: LUCIFERASE INFECTION ASSAY - IC50): < 5.00
24 | COc1cc(-c2cn3c(-c4ccc5ncccc5c4)cnc3cn2)cc(OC)c1OC | 7.92 µM |  | pIC50 (HEPG2TOX_HILL_SLOPE 2.69, HEPG2TOX_R_SQUARED 0.906, PBLUC_HILL_SLOPE 2.74, PBLUC_R_SQUARED 0.535, read-out: LUCIFERASE INFECTION ASSAY - IC50): 5.45
25 | CCOc1cc(C(=O)NC2CCCCCC2)ccc1OCc1cccnc1 | > 2 µM | < 5.70 | 
26 | Cc1ccc(NC(=O)Cn2ccccc2=O)cc1S(=O)(=O)N1CCCCC1 | > 10 µM |  | pIC50 (PBLUC_HILL_SLOPE 1.99, PBLUC_R_SQUARED 0.304, read-out: LUCIFERASE INFECTION ASSAY - IC50): 5.27
27 | COc1cccc(-c2cn3c(-c4ccc(C(=O)NC5CC5)cc4)cnc3cn2)c1F | 7.93 µM |  | pIC50 (PBLUC_HILL_SLOPE 10.9, PBLUC_R_SQUARED 0.72, read-out: LUCIFERASE INFECTION ASSAY - IC50): 5.19
28 | CN(C)S(=O)(=O)c1cc(C(=O)Nc2nc(-c3ccccc3)cn2/N=C/c2ccccc2)ccc1Cl | > 10 µM |  | pIC50 (PBLUC_HILL_SLOPE 2.59, PBLUC_R_SQUARED 0.747, read-out: LUCIFERASE INFECTION ASSAY - IC50): 5.24
29 | Cc1cccc(C(=O)Nc2ccc(N3CCc4sccc4C3)nc2)c1[N+](=O)[O-] | > 10 µM |  | pIC50 (HEPG2TOX_HILL_SLOPE 2.87, HEPG2TOX_R_SQUARED 0.919, PBLUC_HILL_SLOPE 1.54, PBLUC_R_SQUARED 0.645, read-out: LUCIFERASE INFECTION ASSAY - IC50): 5.60
30 | O=C(Nc1ccc(Cl)cc1)O/N=C(\Nc1ccc(OC(F)(F)F)cc1)c1c(Cl)cccc1Cl | > 6.36 µM |  | pIC50 (PBLUC_HILL_SLOPE 0.408, PBLUC_R_SQUARED 0.392, read-out: LUCIFERASE INFECTION ASSAY - IC50): < 5.20
31 | Fc1ccc(-c2csc(NCC3CCCO3)n2)cc1 (centres undefined) | > 11.9 µM | < 4.92 | 
32 | c1cncc(CCNc2nccn3c(-c4ccc5ccccc5c4)cnc23)c1 | 5.14 µM |  | pIC50 (HEPG2TOX_HILL_SLOPE 2.6, HEPG2TOX_R_SQUARED 0.953, PBLUC_HILL_SLOPE 75.6, PBLUC_R_SQUARED 0.403, read-out: LUCIFERASE INFECTION ASSAY - IC50): 5.30
33 | Cc1nn(-c2ccccc2)c(C)c1CC(=O)Nc1ccc2c(c1)OC(F)(F)O2 | > 10 µM | < 5.00 | 
34 | C=CCn1c(SCc2cn3c(C)cccc3n2)nc2sc(C)c(C)c2c1=O | > 10 µM |  | pIC50 (FFLUC_HILL_SLOPE 10.3, FFLUC_R_SQUARED 0.131, HEPG2TOX_HILL_SLOPE 7.8, HEPG2TOX_R_SQUARED 0.483, read-out: LUCIFERASE INFECTION ASSAY - IC50): < 5.00
35 | COc1cc2nc(-c3ccccc3)nc(N3CCN(c4ccncc4)CC3)c2cc1OC | > 10 µM | < 5.00 | 
36 | O=C1C2=C(Nc3ccccc3SC2c2ccccc2F)c2ccccc21 (centres undefined) | 2.61 µM |  | pIC50 (PBLUC_HILL_SLOPE 1.25, PBLUC_R_SQUARED 0.725, read-out: LUCIFERASE INFECTION ASSAY - IC50): 6.34
37 | Cn1c(-c2ccccc2)c(C(=O)COc2ccc(-c3ccccc3)cc2)c2ccccc21 | > 10 µM |  | pIC50 (HEPG2TOX_HILL_SLOPE 1.37, HEPG2TOX_R_SQUARED 0.968, PBLUC_HILL_SLOPE 1.98, PBLUC_R_SQUARED 0.384, read-out: LUCIFERASE INFECTION ASSAY - IC50): 5.31
38 | O=C(Nc1ccc(F)cc1F)c1cc(Br)ccc1O | 9.77 µM |  | pIC50 (HEPG2TOX_HILL_SLOPE 11.9, HEPG2TOX_R_SQUARED 0.641, PBLUC_HILL_SLOPE 14.3, PBLUC_R_SQUARED 0.252, read-out: LUCIFERASE INFECTION ASSAY - IC50): 5.08
39 | c1ccc(OCCN2CCN(c3ccc(-c4nc5ccccc5[nH]4)cn3)CC2)cc1 | > 10 µM |  | pIC50 (PBLUC_HILL_SLOPE 16.1, PBLUC_R_SQUARED 0.136, read-out: LUCIFERASE INFECTION ASSAY - IC50): 5.03
40 | O=C(Nc1cccc(Cl)c1)n1nccc1-c1cc(-c2ccccc2)no1 | > 9.05 µM | < 5.04 | 
41 | CC(=O)O[C@H]1C[C@@H](O[C@@H]2C(C)O[C@H](O[C@@H]3C(C)O[C@@H](O[C@H]4CC[C@@]5(C)C(CCC6C5C[C@@H](O)[C@]5(C)[C@@H](C7=CC(=O)OC7)CC[C@]65O)C4)C[C@@H]3O)C[C@@H]2O)OC(C)[C@H]1O[C@@H]1O[C@H](CO)[C@@H](O)[C@H](O)[C@H]1O (some centres undefined) | > 3.35 µM |  | pIC50 (HEPG2TOX_HILL_SLOPE 2.2, HEPG2TOX_R_SQUARED 0.634, PBLUC_HILL_SLOPE 2.28, PBLUC_R_SQUARED 0.618, read-out: LUCIFERASE INFECTION ASSAY - IC50): 5.80
42 | CNc1ncnc(NNC(=O)Nc2ccc(OC(F)(F)F)cc2)c1[N+](=O)[O-] | > 8.52 µM | 5.48 | 
